# According to patent US20230348456A1, “QUINAZOLINONES, PHARMACEUTICAL COMPOSITIONS CONTAINING THE SAME, AND METHODS OF USING THE SAME” (Repare Therapeutics Inc., priority 2022, published 2023):
# Molecular target: recombinant human Myt1 (Homo sapiens (Human), UniProt Q99640)
# Experiment: Myt1 enzymatic assay (ADP-Glo kinase assay)
# Format: biochemical
# Settings: recombinant human Myt1 18 nM, ATP 10 μM
# Method: Detection of Myt1 kinase activity utilized a recombinant human Myt1 kinase assay measuring the hydrolysis of ATP using a commercially available ADP-Glo Assay (ADP-Glo™ Kinase Assay from Promega, 10 000 assays, #V9102). Briefly, 5 μL recombinant human Myt1 (full length PKMYT1 recombinant human protein expressed in insect cells from Thermo Fisher #A33387; ˜80% purity) was prepared in reaction buffer (70 mM HEPES, 3 mM MgCl2, 3 mM MnCl2, 50 μg/ml PEG 20000, 3 μM Na-orthovanadate, 1.2 mM DTT) and added to 384 well white polystyrene, flat bottom well, non-treated, microplate (Corning #3572). After this, 5 μL of compounds (diluted in reaction buffer to 0.5% DMSO) was added to the microplate and the plate was spun briefly and incubated at 22° C. for 15 minutes. Ultra-Pure Adenosine Triphosphate (ATP) solution (ADP-Glo kit from Promega) was diluted in reaction buffer and 5 μL was added to the microplate, spun down briefly and incubated for 60 minutes at 30° C. The final Myt1 enzyme concentration was 18 nM and the final ATP concentration was 10 μM. After the 60-minute incubation, 15 μL of ADP-Glo reagent was added and the plate was spun briefly and sealed and incubated in the dark for 40 minutes at 22° C. Following this, 30 μL of kinase detection reagent was added per well and the plate was spun briefly, sealed and incubated for 45-60 minutes at 22° C. in the dark. Luminescence was read using the Envision (250 ms integration). The IC50 and the % max inhibition were calculated for each inhibitor compound tested.
# Chain of recombinant human Myt1 (Q99640 whole entry): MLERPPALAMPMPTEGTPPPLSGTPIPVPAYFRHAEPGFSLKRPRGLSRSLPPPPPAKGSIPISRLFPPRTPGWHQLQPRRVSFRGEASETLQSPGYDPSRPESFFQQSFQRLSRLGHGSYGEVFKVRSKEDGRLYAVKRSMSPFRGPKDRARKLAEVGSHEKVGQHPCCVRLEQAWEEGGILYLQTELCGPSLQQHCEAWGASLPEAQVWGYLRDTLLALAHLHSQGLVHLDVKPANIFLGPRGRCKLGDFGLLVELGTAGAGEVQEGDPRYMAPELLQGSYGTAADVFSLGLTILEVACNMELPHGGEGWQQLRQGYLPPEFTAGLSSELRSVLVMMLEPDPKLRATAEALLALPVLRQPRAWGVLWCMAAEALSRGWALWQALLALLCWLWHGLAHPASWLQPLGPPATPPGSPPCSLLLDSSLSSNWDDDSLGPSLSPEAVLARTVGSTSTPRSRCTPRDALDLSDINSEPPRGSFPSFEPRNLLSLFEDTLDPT
row,Compound,IC50 [nM]
1,"Nc1c(-c2cccc3[nH]ncc23)cc(-c2nccs2)c2nc(-c3ccccc3)[nH]c(=O)c12 [Compound 1, 5-amino-6-(1H-indazol-4-yl)-2-phenyl-8-(thiazol-2-yl)quinazolin-4(3H)-one]",4
2,"Cc1ccc(O)cc1-c1cc(-c2nccs2)c2cc[nH]c(=O)c2c1N [Compound 164, 8-amino-7-(5-hydroxy-2-methyl-phenyl)-5-thiazol-2-yl-2H-isoquinolin-1-one]",12
3,Cc1ccc2[nH]ncc2c1-c1cc(-c2cccc(OCc3nccn3C)n2)c2nc[nH]c(=O)c2c1N [Compound 90],11
4,Nc1c(-c2cccc3[nH]ncc23)cc(-c2cccc(=O)[nH]2)c2nc(-c3cccnc3)[nH]c(=O)c12 [Compound 80],6
5,N#Cc1ccc(-c2nc3c(-c4nccs4)cc(-c4cccc5[nH]ncc45)c(N)c3c(=O)[nH]2)cc1 [Compound 5],89
6,Nc1c(-c2cccc3[nH]ncc23)cc(-c2cnn(C3CCOCC3)c2)c2nc(-c3ccncc3)[nH]c(=O)c12 [Compound 67],3
7,Nc1c(-c2cccc3[nH]ncc23)cc(-c2ccc(Cl)s2)c2nc[nH]c(=O)c12 [Compound 123],89
8,COCc1nc2c(-c3nccs3)cc(-c3cccc4[nH]ncc34)c(N)c2c(=O)[nH]1 [Compound 43],20
9,Nc1c(-c2cccc3[nH]ncc23)cc(-c2cnn(CC3CC3)c2)c2nc(-c3ccncc3)[nH]c(=O)c12 [Compound 68],6
10,N#Cc1ccc(-c2cc(-c3cccc4[nH]ncc34)c(N)c3c(=O)[nH]cnc23)s1 [Compound 118],11
11,Nc1c(-c2cccc3[nH]ncc23)cc(-n2cccn2)c2nc(-c3cccnc3)[nH]c(=O)c12 [Compound 79],3
12,CN1CCN(c2ccc(-c3nc4c(Br)cc(-c5cccc6[nH]ncc56)c(N)c4c(=O)[nH]3)cn2)CC1 [Compound 24],10
13,Cc1ccc2[nH]ncc2c1-c1cc(-c2cccc(OC[C@@H]3COCCO3)n2)c2nc[nH]c(=O)c2c1N [Compound 101],11
14,Nc1c(-c2cccc3[nH]ncc23)ccc2nc[nH]c(=O)c12 [Compound 109],122
15,CN1CCC(n2cc(-c3cc(-c4cccc5[nH]ncc45)c(N)c4c(=O)[nH]c(-c5ccncc5)nc34)cn2)CC1 [Compound 60],3
16,Cn1ccc(-c2cc(-c3cccc4[nH]ncc34)c(N)c3c(=O)[nH]c(-c4ccncc4)nc23)n1 [Compound 61],2
17,Cc1cccc(-c2nc3c(-c4nccs4)cc(-c4cccc5[nH]ncc45)c(N)c3c(=O)[nH]2)c1 [Compound 20],10
18,Nc1c(-c2cccc3[nH]ncc23)cc(Br)c2nc(-c3ccc(N4CCC(O)CC4)nc3)[nH]c(=O)c12 [Compound 45],18
19,Nc1c(-c2cccc3[nH]ncc23)cc(Br)c2nc(-c3ccc(N4CCN(C5CC5)CC4)nc3)[nH]c(=O)c12 [Compound 26],5
20,Nc1c(-c2cccc3[nH]ncc23)cc(-c2cccc(OC[C@H]3CCCO3)n2)c2nc(-c3ccncc3)[nH]c(=O)c12 [Compound 70],4
21,Cc1ccc(O)cc1-c1cc(-c2nc(NC(=O)C3CCOCC3)cs2)c2c(c1N)C(=O)NC2 [Compound 144],930

row,Compound,IC50 [nM]
1,Cc1ccc2[nH]ncc2c1-c1cc(-c2nccs2)c2c(c1N)C(=O)NC2 [Compound 63],16
2,N#Cc1cnc(-c2cc(-c3cccc4[nH]ncc34)c(N)c3c(=O)[nH]cnc23)s1 [Compound 128],5
3,Cc1ccc(O)cc1-c1cc(-c2ccccn2)c2c(c1N)C(=O)NC2 [Compound 136],548
4,Cc1ccc2[nH]ncc2c1-c1cc(-c2cccc(OCCN3CCOCC3)n2)c2nc[nH]c(=O)c2c1N [Compound 88],5
5,Nc1c(-c2cccc3[nH]ncc23)cc(-c2ccc(F)s2)c2nc[nH]c(=O)c12 [Compound 117],15
6,Nc1c(-c2cccc3[nH]ncc23)cc(-c2cccc(OCCN3CCCC3)n2)c2nc(-c3ccncc3)[nH]c(=O)c12 [Compound 54],2
7,Nc1c(-c2cccc3[nH]ncc23)cc(-c2nccs2)c2nc(-c3ccc(-c4ccccc4)cc3)[nH]c(=O)c12 [Compound 6],> 2000
8,Nc1c(-c2cccc3[nH]ncc23)cc(-c2nccs2)c2nc(-c3cccc(N4CCOCC4)c3)[nH]c(=O)c12 [Compound 18],9
9,Cc1ccc(O)cc1-c1cc(-c2nc(C#N)cs2)c2c(c1N)C(=O)NC2 [Compound 160],237
10,Cc1ccc(O)cc1-c1cc(Br)c2c(c1N)C(=O)NC2 [Compound 69],864
11,Nc1c(-c2cccc3[nH]ncc23)cc(-n2cc(F)cn2)c2nc(-c3cccnc3)[nH]c(=O)c12 [Compound 75],6
12,Cc1ccc(O)cc1-c1cc(-c2ncc(C#N)s2)c2c(c1N)C(=O)NC2 [Compound 155],179
13,Nc1c(-c2cccc3[nH]ncc23)cc(-c2nccs2)c2nc(-c3ccncc3)[nH]c(=O)c12 [Compound 33],9
14,Nc1c(-c2cccc3[nH]ncc23)cc(-c2nccs2)c2nc(-c3cccc(CN4CCOCC4)c3)[nH]c(=O)c12 [Compound 40],18
15,Nc1c(-c2cccc3[nH]ncc23)cc(-c2nc(Cl)cs2)c2nc[nH]c(=O)c12 [Compound 116],13
16,Nc1c(-c2cccc3[nH]ncc23)cc(Br)c2nc(-c3ccncc3)[nH]c(=O)c12 [Compound 83],5
17,Cc1ccc(O)cc1-c1cc(-c2nc(C(=O)NCCO)cs2)c2c(c1N)C(=O)NC2 [Compound 145],645
18,CNC(=O)c1csc(-c2cc(-c3cc(O)ccc3C)c(N)c3c2CNC3=O)n1 [Compound 159],75
19,Nc1ccc(-c2nc3c(-c4nccs4)cc(-c4cccc5[nH]ncc45)c(N)c3c(=O)[nH]2)cn1 [Compound 4],5
20,Cc1ccc(O)cc1-c1cc(-c2ncc(C(=O)N(C)C)s2)c2c(c1N)C(=O)NC2 [Compound 154],298
21,Cc1ccc2[nH]ncc2c1-c1cc(-c2cccc(F)n2)c2nc[nH]c(=O)c2c1N [Compound 99],17

row,Compound,IC50 [nM]
1,Nc1c(-c2cccc3[nH]ncc23)cc(-c2cnn(C3COC3)c2)c2nc(-c3cccnc3)[nH]c(=O)c12 [Compound 100],5
2,Nc1c(-c2cccc3[nH]ncc23)cc(-c2ccns2)c2nc[nH]c(=O)c12 [Compound 132],4
3,"Cc1ccc(-c2cc(-c3cccc4[nH]ncc34)c(N)c3c(=O)[nH]cnc23)s1 [Compound 121, 5-amino-6-(1H-indazol-4-yl)-8-(5-methylthiophen-2-yl)quinazolin-4(3H)-one]",62
4,Cc1ccc(O)cc1-c1ccc2c(c1N)C(=O)NC2 [Compound 85],16000
5,"Cc1ccc(O)c(C)c1-c1cc(C2CC2)c2nc(-c3ccncc3)[nH]c(=O)c2c1N [Compound 134, 5-amino-8-cyclopropyl-6-(3-hydroxy-2,6-dimethyl-phenyl)-2-(4-pyridyl)-3H-quinazolin-4-one]",5
6,Cc1ccc2[nH]ncc2c1-c1cc(-c2ccnnc2)c2c(c1N)C(=O)NC2 [Compound 51],1230
7,Nc1c(-c2cccc3[nH]ncc23)cc(-c2cnn(C(F)F)c2)c2nc(-c3ccncc3)[nH]c(=O)c12 [Compound 73],4
8,Cc1ccc2[nH]ncc2c1-c1cc(-c2cccc(OCCN3CCCC3)n2)c2nc[nH]c(=O)c2c1N [Compound 89],13
9,Cc1ccc(O)cc1-c1cc(-c2nc(C(=O)N(C)C)cs2)c2c(c1N)C(=O)NC2 [Compound 151],61
10,Cc1ccc(O)c(C)c1-c1cc(-c2nccs2)c2c(c1N)C(=O)NC2 [Compound 139],7
11,Nc1c(-c2cccc3[nH]ncc23)cc(-c2nccs2)c2nc(-c3ccnc(N4CCNCC4)c3)[nH]c(=O)c12 [Compound 31],15
12,Nc1c(-c2cccc3[nH]ncc23)cc(Br)c2nc(-c3ccc(NCCN4CCCC4)nc3)[nH]c(=O)c12 [Compound 23],4
13,"Cc1ccc(O)cc1-c1cc(-c2nc(Cl)cs2)c2c(c1N)C(=O)NC2 [Compound 161, 7-amino-4-(4-chlorothiazol-2-yl)-6-(5-hydroxy-2-methylphenyl)isoindolin-1-one]",253
14,Nc1c(-c2cccc3[nH]ncc23)cc(-c2ncc(C(F)(F)F)s2)c2nc[nH]c(=O)c12 [Compound 115],109
15,Cc1ccc(O)cc1-c1cc(-c2ncc(C(=O)NCCO)s2)c2c(c1N)C(=O)NC2 [Compound 147],209
16,Nc1c(-c2cccc3[nH]ncc23)cc(-c2cccc(OCCN3CCOCC3)c2)c2nc(-c3ccncc3)[nH]c(=O)c12 [Compound 52],5
17,CC1(O)CCN(c2ccc(-c3nc4c(Br)cc(-c5cccc6[nH]ncc56)c(N)c4c(=O)[nH]3)cn2)CC1 [Compound 47],11
18,Nc1c(-c2cccc3[nH]ncc23)cc(-c2nccs2)c2nc(Cc3ccccc3)[nH]c(=O)c12 [Compound 46],> 2000
19,"Nc1c(-c2cccc3[nH]ncc23)cc(-c2nccs2)c2nc(-c3ccnc(N4CCOCC4)c3)[nH]c(=O)c12 [Compound 15, 5-amino-6-(1H-indazol-4-yl)-2-(2-morpholinopyridin-4-yl)-8-(thiazol-2-yl)quinazolin-4(3H)-one]",10
